Consider 15 compounds from patent US5763597A, “Orally active adenosine kinase inhibitors” (priority 1996, dated 1998).

Where two headings read alike, the source gives them in different places.

For one data set, the system named is rat cardiomyocytes. The settings on record: cited from earlier work.
Data set [1] concerns isolated guinea pig hearts. The settings on record: without ADA inhibition; cited from earlier work.
The conditions of data set [2]: background; hence potentially short half life; cited from earlier work.
The next data set has as its system rat brain slices. The settings on record: cited from earlier work.
Another data set relates to guinea pig brain slices. Particulars: cited from earlier work.
The next data set deals with mice. The settings on record: cited from earlier work; for general flaccidity and spontaneous locomotor activity: interpreted to be skeletal muscle relaxation.
The test system of another data set is isolated rat hearts. The settings on record: compound alone, cited from earlier work.
A further data set relates to dog hearts. Particulars: cited from earlier work.
For data set [3] the following is noted: background; cited from earlier work.
The target in a further data set is adenosine kinase. Briefly: AK inhibition (adenosine kinase activity, [U-14C] adenosine). Particulars: 0.5 μM adenosine, 1 mM ATP, pH 7.0, 20 min; pig heart or recombinant human enzyme. It counts as biochemical, partially purified pig heart or recombinant human. The protocol:
Adenosine kinase activity was measured essentially as described by Yamada et al. Biochim. Biophys. Acta 660, 3643 (1988) with a few minor modifications. Assay mixtures contained 50 mM TRIS-maleate buffer, pH 7.0, 0.1% BSA, 1 mM ATP 1 mM MgCl2, 0.5 μM [U-^14 C] adenosine (400-600 mCi/mmol) and varying duplicate concentrations of inhibitor. […] The amount of ^14 C-AMP was quantified by scintillation counting.

Data set [4] has as its system formalin-induced pain in rats. Briefly: Analgesic activity, formalin paw model. It counts as in vivo. The settings on record: rat, oral, 20 mg/kg; for % Inhibition Phase 1 Composite score: Phase 1 (1.7-5 min post-formalin); for % Inhibition Phase 2 Composite score: Phase 2 (10.3-30 min post-formalin); for % Inhibition Phase 2 Licking/biting: Phase 2, licking/biting incidences. An excerpt:
Pharmacol. Exper. Ther., 250:3, 915-922 (1989). See also, Life Sciences 51:171-76 (1992). These models measure pain avoidance and tolerance in response to a regulated stimulus, and compare the response of animals before and after they are given test compound. Formalin Paw Assay In this assay, injection of formalin, an irritant, into the hindpaw of rats typically evokes a biphasic response of pain-related behaviors. […] Phase I behavior is thought to be a direct effect of the irritant on nociceptors at the injection site while phase 2 behavior is thought to include a hyperalgesic component mediated by sensitization of neuronal elements within the spinal cord. Studies from other laboratories have found the first portion of Phase 2 (sometimes referred to as Phase 2a) to be most responsive to pharmacological manipulation. Rats (male, Simonsen) weighing between 100-200 g, are used in the present experiments. For screening purposes drugs are administered orally 90 min prior to initiation of formalin test. […] The rat is then immediately placed in a separate plexiglass box and scoring (described below) of the animal's behavior is begun at 1.7 min after formalin injection. […] This sequence is repeated over a 30 min period. […] Scores are continuously recorded directly onto an Excel spreadsheet.

Data set [5] concerns hot plate pain response in male SA rats. As to the kind of experiment: Analgesic activity, hot plate. Particulars: rat, po. It counts as in vivo. From the text: Ther., 250:3, 915-922 (1989). See also, Life Sciences 51:171-76 (1992). These models measure pain avoidance and tolerance in response to a regulated stimulus, and compare the response of animals before and after they are given test compound.

For data set [6], the system named is carrageenan paw swelling in rats. As to the kind of experiment: Anti-inflammatory activity, carrageenan paw swelling. In kind it is in vivo. Particulars: rat, swelling after 3 hours; for Carrageenan Paw (% inh) ip: 10 mg/kg ip, 30 min before carrageenan; for Carrageenan Paw (% inh) po: 10 mg/kg po, 1 h before carrageenan.
Data set [7] can be described thus: Oral bioavailability in dogs. It counts as in vivo, female beagle dogs. The settings on record: dog, 10 mg/kg oral versus iv, dose-corrected AUC to infinity, PEG-400. The protocol:
Oral bioavailability was determined by comparing the dose corrected areas under the plasma-concentration time curve (AUC) to infinity for the each tested compound, given orally and intravenously in dogs. […] One dog received this solution at an infusion rate of 0.1 mL/min for 20 minutes. The other dog received a 0.2 mL/in infusion for 10 minutes. […] The plasma was separated within 10 minutes of blood collection and was stored frozen. The plasma concentration of compound was then determined for these IV infusions. […] The plasma concentration of compound was determined for this oral administration. The samples were assayed for intact adenosine kinase inhibitor by high performance liquid chromatography (HPLC). An internal standard was added to each test sample and standard sample. Each was then extracted with 10 volumes of 1% v/v dimethylsulfoxide in acetonitrile. […] The dried residue was reconstituted in mobile phase and the contents were analyzed for the adenosine kinase inhibitor (AKI) on HPLC. […] Pharmacokinetic parameters were calculated from the plasma concentration vs. time data, using standard non-compartmental methods. […] (1983).

The subject of data set [8] is maximal electroshock seizures (hind limb tonic extension) in male SA rats. Briefly: Anticonvulsant activity, maximal electroshock (MES) model. It counts as in vivo. Particulars: rat.
Data set [9] concerns liver enzymes and total bilirubin in female SA rats. Briefly: Liver toxicity (serum liver enzymes and bilirubin). The settings on record: rat, 2 x 37.5 μmole/kg iv infusion, 12 h after second dose. It counts as in vivo. The protocol: Female SA rats (150-200 g) were anesthetized with halothane and a chronic catheter was placed in the internal jugular vein. The animals were allowed to recover for 3 days. […] Twelve hours later, an additional 37.5 μmole/kg was infused over 40 minutes (total dose=75 μmole/kg). Twelve hours after the second dose, the animals were anesthetized with halothane and exsanguinated through the descending aorta. Liver enzymes (serum glutamic-oxaloacetic transaminase (SGOT), serum glutamic-pyruvic transaminase (SGPT), alkaline phosphatase) and total bilirubin in the serum samples were determined by a commercial laboratory.

Where [10] appears, read: po, fasted overnight, ">>" (written >) = no activity at stated dose, read-out: Anticonvulsant ED50 (MES) po.
[11] abbreviates: ip, ">5" = HTE inhibited in fewer than 50% of animals at 5 mg/kg screen, ">>" (written >) = no activity, "<" = maximal activity at stated dose, read-out: Anticonvulsant ED50 (MES) ip.

Turning to `OC[C@H]1O[C@@H](n2cnc3c2N=CNC[C@H]3O)C[C@@H]1O` [2'-deoxycoformycin], the “effect on adenosine release from the cells” value with rat cardiomyocytes (adenosine deaminase inhibition) is recorded as “no effect on adenosine release from the cells”.
With `NC[C@H]1O[C@@H](n2cnc3c(N)ncnc32)[C@H](O)[C@@H]1O` [5'-amino-5'-deoxyadenosine], the “increase in adenosine release” value in the data set on rat cardiomyocytes (together with ADA inhibition) is given as 6 fold. The “adenosine release in the absence of ADA inhibition” value in data set [1] is “These effects were not apparent in the absence of ADA inhibition”. Besides, the susceptibility to deamination entry in [2] was “susceptibility of 5'-amino-5'-deoxyadenosine to deamination”.
With `C[C@H]1O[C@@H](n2cc(I)c3c(N)ncnc32)[C@H](O)[C@@H]1O` [5'-deoxy-5-iodotubercidin], the “adenosine uptake, rat brain slices” value in the data set on rat brain slices is listed as “adenosine uptake was reportedly inhibited”. The “adenosine uptake, guinea pig brain slices” value with guinea pig brain slices is recorded as “adenosine uptake was reportedly inhibited”. Moreover, in the data set on mice, the “body temperature (hypothermia)” value is reported as “hypothermia”; the “general flaccidity and spontaneous locomotor activity” value is “pronounced general flaccidity and much-reduced spontaneous locomotor activity”.
For `Nc1ncnc2c1c(I)cn2[C@@H]1O[C@H](CO)[C@@H](O)[C@H]1O` [5-iodotubercidin], the “perfusate adenosine concentration, hypoxic, anoxic or ischemic” value in the data set with isolated rat hearts (hypoxic, anoxic or ischemic conditions) is recorded as “no increase in perfusate adenosine concentration”. In the data set with isolated rat hearts (normoxic conditions), the “perfusate adenosine concentration, normoxic” value is “no increase in perfusate adenosine concentration”. Also, the “adenosine uptake, rat brain slices” value with rat brain slices is given as “adenosine uptake was reportedly inhibited”. For the same compound, in the data set on guinea pig brain slices, the “adenosine uptake, guinea pig brain slices” value is “adenosine uptake was reportedly inhibited”. The “effects in dog heart ischemia and reperfusion” value in the data set on dog hearts is given as “inconsistent effects”. In the data set on mice, the “body temperature (hypothermia)” value is on record as “hypothermia”; the “general flaccidity and spontaneous locomotor activity” value is “pronounced general flaccidity and much-reduced spontaneous locomotor activity”. In addition, the cytotoxicity result in [3] is given as “cytotoxicity of 5-iodotubercidin”.
For `C[C@H]1O[C@@H](n2cc(-c3ccccc3)c3c(Nc4ccc(F)cc4)ncnc32)[C@H](O)[C@@H]1O` [compound 1], the IC50 at adenosine kinase came to 11 nM. In data set [4], the “% Inhibition Phase 1 Composite score” value is given as 7.4%, the “% Inhibition Phase 2 Composite score” value worked out at 33.3% and the “% Inhibition Phase 2 Licking/biting” value is listed as 59%. Further, the ED50 in data set [5] was found to be 16.6 mg/kg. Besides, in data set [6], the “Carrageenan Paw (% inh) ip” value is 3.5 % inh and the “Carrageenan Paw (% inh) po” value was 0.2 % inh.
On to `C[C@H]1O[C@@H](n2cc(-c3ccc(F)cc3)c3c(Nc4ccc(F)cc4)ncnc32)[C@H](O)[C@@H]1O` [compound 2], for which the “% Oral Availability” value in data set [7] amounted to 47%.
Regarding `COc1ccc(-c2cn([C@@H]3O[C@H](C)[C@@H](O)[C@H]3O)c3ncnc(Nc4ccc(F)cc4)c23)cc1` [compound 25], on adenosine kinase, the IC50 stood at 10 nM. In data set [4], the “% Inhibition Phase 1 Composite score” value is reported as 88.4%, the “% Inhibition Phase 2 Composite score” value is on record as 91.9% and the “% Inhibition Phase 2 Licking/biting” value is recorded as 100%.
For `CCOc1ccc(Nc2ncnc3c2c(-c2ccccc2)cn3[C@@H]2O[C@H](C)[C@@H](O)[C@H]2O)cc1` [compound 28], at adenosine kinase, the IC50 was 4 nM. In addition, in data set [4], the “% Inhibition Phase 1 Composite score” value is recorded as 22.5%, the “% Inhibition Phase 2 Composite score” value was determined as 46.8% and the “% Inhibition Phase 2 Licking/biting” value amounted to 83%. Also, in data set [6], the “Carrageenan Paw (% inh) ip” value is listed as 22.2 % inh and the “Carrageenan Paw (% inh) po” value came to 31.0 % inh.
For the compound `CC(=O)Nc1ccc(Nc2ncnc3c2c(-c2ccccc2)cn3[C@@H]2O[C@H](C)[C@@H](O)[C@H]2O)cc1` [compound 32], the IC50 at adenosine kinase was 0.5 nM. In [8] (setting [10]), the ED50 was above 10 mg/kg. In addition, in data set [4], the “% Inhibition Phase 1 Composite score” value is recorded as 0%, the “% Inhibition Phase 2 Composite score” value worked out at 30.9% and the “% Inhibition Phase 2 Licking/biting” value was found to be 56%.
Take `C[C@H]1O[C@@H](n2cc(-c3ccccc3)c3c(Nc4ccc(S(N)(=O)=O)cc4)ncnc32)[C@H](O)[C@@H]1O` [compound 34]: the IC50 on adenosine kinase is 5 nM. The ED50 in [8] (setting [10]) is above 10 mg/kg. Moreover, in data set [6], the “Carrageenan Paw (% inh) ip” value is recorded as 1.7 % inh and the “Carrageenan Paw (% inh) po” value came out at 0 % inh.
Regarding `C[C@H]1O[C@@H](n2cc(-c3ccccc3)c3c(Nc4ccc(N)cc4)ncnc32)[C@H](O)[C@@H]1O` [compound 43], the IC50 at adenosine kinase is 3 nM. Further, in data set [8] (setting [11]), the ED50 amounted to 5 mg/kg.
`[N-]=[N+]=NC[C@H]1O[C@@H](n2nc(-c3cccs3)c3c(Nc4ccccc4)ncnc32)[C@H](O)[C@@H]1O` [compound 97]: the IC50 on adenosine kinase stood at 10 nM. Also, the “Anticonvulsant ED50 (MES) ip” value in [8] (ip, ">5" = HTE inhibited in fewer than 50% of animals at 5 mg/kg screen, ">>" (written >) = no activity, "<" = maximal activity at stated dose) is above 5 mg/kg.
In the case of `CCOC(=O)Cc1ccc(Nc2ncnc3c2c(-c2ccccc2)cn3[C@@H]2O[C@H](C)[C@@H](O)[C@H]2O)cc1` [compound 127], at adenosine kinase, the IC50 was found to be 2 nM. Further, in [8] (setting [11]), the ED50 was determined as 5 mg/kg. For the same compound, in [6], the “Carrageenan Paw (% inh) ip” value worked out at 5.4 % inh and the “Carrageenan Paw (% inh) po” value amounted to 2.9 % inh.
Consider `C[C@H]1O[C@@H](n2cc(-c3ccc(CO)cc3)c3c(Nc4ccccc4)ncnc32)[C@H](O)[C@@H]1O` [compound 130], for which the IC50 at adenosine kinase turned out to be 6 nM. Further, in data set [8] (setting [11]), the ED50 was above 5 mg/kg. In [6], the “Carrageenan Paw (% inh) ip” value was determined as 0.0 % inh and the “Carrageenan Paw (% inh) po” value came out at 3.9 % inh.
For `C[C@H]1O[C@@H](n2cc(-c3cccc(N)c3)c3c(Nc4ccc(F)cc4)ncnc32)[C@H](O)[C@@H]1O` [compound 131], at adenosine kinase, the concentration for half-maximal inhibition (IC50) is 3 nM. Moreover, in [6], the “Carrageenan Paw (% inh) ip” value was 44.2 % inh and the “Carrageenan Paw (% inh) po” value is recorded as 15.9 % inh. The “Total Bilirubin” value in data set [9] (vehicle 0.10 ±0.04) was found to be 0.10 mg/dL. In [9] (vehicle 80 ±10), this compound displayed an SGPT of 65 IU/L. In data set [9] (vehicle 102 ±12), the SGOT came to 120 IU/L. Besides, the “Alkaline Phosphatase” value in [9] (vehicle 140 ±50) is 169 IU/L.

In general, IC50 refers to the concentration at which inhibition is half-maximal. One may read the ED50 as the dose at which the effect has come halfway, by size or by number of responders.
